Results on six compounds are retold here after ChEMBL document CHEMBL5150004, “Targeting Rearranged during Transfection in Cancer: A Perspective on Small-Molecule Inhibitors and Their Clinical Development” (J Med Chem, 2021).

As a reminder, the IC50 is the concentration at which inhibition is half-maximal. By Kd is commonly meant the constant that tells how readily two partners part at equilibrium. As a reminder, the GI50 is the concentration that inhibits growth by half. The low end stands for greater sensitivity of the cells, the high end for lower sensitivity of the cells.

Data set [1] in a line: Inhibition of RET G810R (unknown origin). More on the design: species or system Homo sapiens.
In data set [2] the target is Vascular endothelial growth factor receptor 2 (Homo sapiens, UniProt P35968). Nature of the data set: Inhibition of recombinant VEGFR2 (unknown origin) incubated for 120 mins by Perkin Elmer electrophoretic mobility shift platform method. Background: A gel shift assay detects complexes by their altered migration in electrophoresis.
Data set [3] has as its system NB1. Nature of the data set: cells. Particulars: Homo sapiens.
The nature of data set [4]: Inhibition of human recombinant RET Y719F using Biotin-EGPWLEEEEEAYGWMDF as substrate by TR-FRET assay. In general terms: Time-resolved FRET reads energy transfer from a long-lived donor to a nearby acceptor.
Data set [5] deals with T1, Tyrosine-protein kinase ABL1 (Homo sapiens, UniProt P00519). Briefly: Inhibition of ABL (unknown origin) by kinomescan assay.
Data set [6] has as its target T1, Tyrosine-protein kinase ABL1. Nature of the data set: Binding affinity to ABL (unknown origin) assessed as dissociation constant measured by ambit kinomescan assay.
A short description of data set [7]: Cytotoxicity against human TT-1 cells expressing RET incubated for 72 hrs by celltitre blue assay. The class given is functional.
In data set [8] the test system is A-431. Nature of the data set: Cytotoxicity against human A-431 cells expressing C-KIT incubated for 72 hrs by celltitre blue assay. The class given is functional.
Data set [9] can be described thus: Inhibition of C-KIT (unknown origin) by kinomescan assay. More on the design: species or system Homo sapiens.
The nature of data set [10]: Cytotoxicity against HUVEC expressing FLT-1 incubated for 72 hrs by celltitre blue assay. Particulars: human. Type of data set: toxicity, cell-based.
Data set [11] has as its system Hs-578T. Briefly: Cytotoxicity against human Hs-578T cells expressing BRAF incubated for 72 hrs by celltitre blue assay. The class given is functional.
The test system of data set [12] is COLO 205. Briefly: Cytotoxicity against human COLO 205 cells expressing BRAF V600E mutant incubated for 72 hrs by celltitre blue assay. The class given is functional.
For data set [13], the system named is A-375. Briefly: Cytotoxicity against human A-375 cells expressing BRAF V600E mutant incubated for 72 hrs by celltitre blue assay. The class given is functional.
For data set [14], the target named is RAF proto-oncogene serine/threonine-protein kinase (Homo sapiens, UniProt P04049). Briefly: Inhibition of CRAF (unknown origin) by kinomescan assay.
Data set [15] concerns K562. Nature of the data set: Cytotoxicity against human K562 cells expressing BCR-ABL incubated for 72 hrs by celltitre blue assay. Type of data set: functional.
Data set [16] deals with HeLa. Nature of the data set: Cytotoxicity against human HeLa cells expressing CRAF incubated for 72 hrs by celltitre blue assay. Type of data set: functional.
Data set [17] is described as follows: Cytotoxicity against HUVEC expressing VEGFR2 incubated for 72 hrs by celltitre blue assay. Particulars: human. Type of data set: toxicity, cell-based.
Data set [18] concerns LNCaP. Briefly: Cytotoxicity against human LNCaP cells expressing BRAF incubated for 72 hrs by celltitre blue assay. The class given is functional.
A short description of data set [19]: Inhibition of recombinant RET V804M (unknown origin) incubated for 120 mins by Perkin Elmer electrophoretic mobility shift platform method. More on the design: species or system Homo sapiens.
Data set [20] is described as follows: Inhibition of p38 (unknown origin). Further details: species or system Homo sapiens.
Data set [21] addresses Proto-oncogene tyrosine-protein kinase receptor Ret (Homo sapiens) (UniProt P07949). As to conditions: NIH3T3.
Data set [22] can be described thus: Inhibition of RET V804M (unknown origin). Further details: species or system Homo sapiens.

T1 sequence (P00519 whole entry): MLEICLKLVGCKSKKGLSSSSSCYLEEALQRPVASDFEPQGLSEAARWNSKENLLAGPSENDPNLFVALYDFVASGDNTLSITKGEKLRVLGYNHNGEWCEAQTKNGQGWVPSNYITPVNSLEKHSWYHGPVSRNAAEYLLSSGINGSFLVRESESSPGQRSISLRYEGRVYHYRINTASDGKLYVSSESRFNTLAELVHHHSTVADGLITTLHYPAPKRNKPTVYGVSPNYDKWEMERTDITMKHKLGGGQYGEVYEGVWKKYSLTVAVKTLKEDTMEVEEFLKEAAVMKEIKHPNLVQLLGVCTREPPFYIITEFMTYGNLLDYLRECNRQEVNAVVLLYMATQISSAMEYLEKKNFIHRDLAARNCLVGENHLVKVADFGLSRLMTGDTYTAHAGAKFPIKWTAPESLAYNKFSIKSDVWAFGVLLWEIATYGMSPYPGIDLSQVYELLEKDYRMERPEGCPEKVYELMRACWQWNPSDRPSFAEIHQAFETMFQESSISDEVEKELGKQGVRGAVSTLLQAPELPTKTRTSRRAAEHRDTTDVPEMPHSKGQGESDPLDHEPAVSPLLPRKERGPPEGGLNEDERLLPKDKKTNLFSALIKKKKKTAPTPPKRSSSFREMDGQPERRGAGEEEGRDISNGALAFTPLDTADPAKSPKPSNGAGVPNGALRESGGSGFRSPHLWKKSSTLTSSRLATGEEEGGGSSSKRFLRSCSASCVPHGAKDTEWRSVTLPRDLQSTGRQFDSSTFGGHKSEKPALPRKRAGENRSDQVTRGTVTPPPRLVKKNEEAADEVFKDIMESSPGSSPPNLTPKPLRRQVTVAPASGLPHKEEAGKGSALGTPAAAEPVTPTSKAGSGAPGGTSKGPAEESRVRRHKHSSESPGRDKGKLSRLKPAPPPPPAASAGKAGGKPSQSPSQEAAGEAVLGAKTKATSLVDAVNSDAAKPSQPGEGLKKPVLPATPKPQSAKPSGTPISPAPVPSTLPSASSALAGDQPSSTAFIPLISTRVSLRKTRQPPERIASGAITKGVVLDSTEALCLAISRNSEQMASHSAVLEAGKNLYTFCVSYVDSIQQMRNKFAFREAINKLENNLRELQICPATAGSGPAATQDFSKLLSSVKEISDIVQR
Chain of Proto-oncogene tyrosine-protein kinase receptor Ret (Homo sapiens) (P07949 whole entry): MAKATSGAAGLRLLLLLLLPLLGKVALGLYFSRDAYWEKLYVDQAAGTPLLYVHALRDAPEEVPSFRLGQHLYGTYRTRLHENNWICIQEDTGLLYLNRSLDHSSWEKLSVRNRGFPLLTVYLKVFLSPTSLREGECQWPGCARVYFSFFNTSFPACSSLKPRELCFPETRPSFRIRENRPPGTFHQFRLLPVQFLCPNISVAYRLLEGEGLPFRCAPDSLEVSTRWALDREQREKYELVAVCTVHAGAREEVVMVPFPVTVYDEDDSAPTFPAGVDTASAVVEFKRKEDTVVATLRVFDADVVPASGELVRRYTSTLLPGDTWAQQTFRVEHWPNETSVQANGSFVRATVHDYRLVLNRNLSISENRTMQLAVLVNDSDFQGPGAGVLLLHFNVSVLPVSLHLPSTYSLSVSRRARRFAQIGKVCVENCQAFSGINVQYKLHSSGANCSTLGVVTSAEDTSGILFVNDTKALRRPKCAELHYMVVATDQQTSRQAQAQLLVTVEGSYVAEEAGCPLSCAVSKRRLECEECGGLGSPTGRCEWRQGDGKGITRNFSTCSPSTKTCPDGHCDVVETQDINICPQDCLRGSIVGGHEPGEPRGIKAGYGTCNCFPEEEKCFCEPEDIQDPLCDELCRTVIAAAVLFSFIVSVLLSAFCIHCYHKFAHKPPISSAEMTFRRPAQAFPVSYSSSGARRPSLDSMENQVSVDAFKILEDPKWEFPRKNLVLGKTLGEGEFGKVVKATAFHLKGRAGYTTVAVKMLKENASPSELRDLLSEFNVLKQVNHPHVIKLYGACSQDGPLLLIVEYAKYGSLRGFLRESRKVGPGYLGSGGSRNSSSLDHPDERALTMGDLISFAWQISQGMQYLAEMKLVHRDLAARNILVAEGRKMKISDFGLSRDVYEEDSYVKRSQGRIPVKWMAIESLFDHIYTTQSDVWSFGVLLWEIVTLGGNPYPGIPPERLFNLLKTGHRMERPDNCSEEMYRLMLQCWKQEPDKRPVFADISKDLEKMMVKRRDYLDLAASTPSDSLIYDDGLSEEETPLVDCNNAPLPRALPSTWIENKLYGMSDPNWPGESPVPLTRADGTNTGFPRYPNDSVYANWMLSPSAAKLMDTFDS
Chain of RAF proto-oncogene serine/threonine-protein kinase (P04049 whole entry): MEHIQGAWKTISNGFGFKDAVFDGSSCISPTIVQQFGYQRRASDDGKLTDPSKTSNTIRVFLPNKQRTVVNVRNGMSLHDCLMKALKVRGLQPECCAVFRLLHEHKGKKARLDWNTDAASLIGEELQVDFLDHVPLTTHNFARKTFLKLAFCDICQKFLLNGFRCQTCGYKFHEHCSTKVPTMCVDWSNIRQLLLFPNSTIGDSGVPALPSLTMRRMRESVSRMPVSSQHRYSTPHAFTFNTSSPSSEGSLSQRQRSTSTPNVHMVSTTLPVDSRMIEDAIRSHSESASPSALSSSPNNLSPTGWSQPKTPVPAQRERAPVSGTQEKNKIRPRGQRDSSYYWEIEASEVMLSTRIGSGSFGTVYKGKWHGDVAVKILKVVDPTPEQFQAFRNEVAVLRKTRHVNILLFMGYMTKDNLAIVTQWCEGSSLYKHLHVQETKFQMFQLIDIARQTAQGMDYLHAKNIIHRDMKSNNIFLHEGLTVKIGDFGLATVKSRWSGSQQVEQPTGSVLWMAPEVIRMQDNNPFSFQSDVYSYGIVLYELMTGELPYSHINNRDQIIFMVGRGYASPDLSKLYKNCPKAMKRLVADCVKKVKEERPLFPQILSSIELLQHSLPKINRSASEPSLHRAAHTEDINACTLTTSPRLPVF
Chain of Vascular endothelial growth factor receptor 2 (P35968 whole entry): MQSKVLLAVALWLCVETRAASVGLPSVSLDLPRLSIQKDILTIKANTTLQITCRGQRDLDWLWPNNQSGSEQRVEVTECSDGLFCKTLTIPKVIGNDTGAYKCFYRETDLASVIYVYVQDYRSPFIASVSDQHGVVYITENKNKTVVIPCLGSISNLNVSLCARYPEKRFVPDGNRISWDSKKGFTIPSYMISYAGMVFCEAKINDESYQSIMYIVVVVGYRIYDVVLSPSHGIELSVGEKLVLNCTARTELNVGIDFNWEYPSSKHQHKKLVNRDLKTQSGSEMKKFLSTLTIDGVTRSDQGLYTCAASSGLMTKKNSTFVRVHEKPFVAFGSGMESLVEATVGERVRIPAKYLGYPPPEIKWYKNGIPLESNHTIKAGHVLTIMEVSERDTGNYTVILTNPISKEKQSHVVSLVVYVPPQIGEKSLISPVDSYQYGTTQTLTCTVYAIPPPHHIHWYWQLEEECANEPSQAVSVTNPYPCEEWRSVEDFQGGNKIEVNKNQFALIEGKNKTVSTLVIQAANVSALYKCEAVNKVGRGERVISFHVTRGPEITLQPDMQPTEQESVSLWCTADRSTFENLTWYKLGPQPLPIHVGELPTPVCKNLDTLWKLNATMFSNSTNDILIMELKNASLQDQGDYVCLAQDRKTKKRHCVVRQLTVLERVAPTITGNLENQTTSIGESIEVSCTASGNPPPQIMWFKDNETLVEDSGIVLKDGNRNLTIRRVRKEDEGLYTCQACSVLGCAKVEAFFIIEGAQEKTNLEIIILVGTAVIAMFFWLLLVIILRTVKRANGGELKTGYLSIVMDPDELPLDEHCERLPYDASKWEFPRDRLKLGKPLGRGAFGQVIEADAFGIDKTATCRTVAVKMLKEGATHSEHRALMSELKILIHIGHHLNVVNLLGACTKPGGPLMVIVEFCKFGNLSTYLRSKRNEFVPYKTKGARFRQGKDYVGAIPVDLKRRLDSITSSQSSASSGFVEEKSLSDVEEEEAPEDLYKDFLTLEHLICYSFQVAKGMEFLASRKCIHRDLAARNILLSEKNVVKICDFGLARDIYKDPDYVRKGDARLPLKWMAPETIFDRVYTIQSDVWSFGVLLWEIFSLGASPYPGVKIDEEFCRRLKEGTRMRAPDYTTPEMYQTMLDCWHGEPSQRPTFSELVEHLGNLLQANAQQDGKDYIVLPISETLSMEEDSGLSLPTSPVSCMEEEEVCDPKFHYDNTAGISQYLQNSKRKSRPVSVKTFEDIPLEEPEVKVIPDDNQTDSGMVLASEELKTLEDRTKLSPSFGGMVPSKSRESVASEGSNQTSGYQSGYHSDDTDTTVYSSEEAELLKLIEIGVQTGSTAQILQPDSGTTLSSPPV

Turning to `COC1(C(=O)N[C@@H](C)c2ccc(-n3cc(F)cn3)nc2)CCC(c2nc(C)cc(Nc3cc(C)[nH]n3)n2)CC1` (some centres undefined), the concentration for half-maximal inhibition (IC50) in [1] is above 500 nM; in data set [2], 35 nM.
As for `CCc1cc2c(cc1N1CCC(N3CCOCC3)CC1)C(C)(C)c1[nH]c3cc(C#N)ccc3c1C2=O` [ALECTINIB], the IC50 in data set [3] came to 4.5 nM; in data set [4] it was 14 nM.
As for `COc1cc2ncnc(Oc3cccc(NC(=O)Nc4cc(C(C)(C)C(F)(F)F)on4)c3)c2cc1OC` [CEP-32496], the results for the half-maximal inhibitory concentration (IC50) in data set [5], in [9] and in data set [14] were 6 nM, 1 nM and 146 nM, respectively. The Kd in [6] was 2.8 nM. Moreover, the GI50 in data set [7] came out at 21 nM; in [8], 1000 nM; in data set [11] it was 2740 nM; in [12] it was 60 nM; in [13] it was 84 nM; in data set [15], 70 nM. Further, the GI50 in data set [16] was at least 3000 nM; in data set [18], 6630 nM. Also, the GI50 at 72 h is at least 1000 nM in data set [10] and at least 700 nM in data set [17].
For `C[C@H]1CNC(=O)c2cnn3cc4c(nc23)N(Cc2cc(F)cnc2O1)[C@@H]1CCC[C@@H]1O4` [ENBEZOTINIB], the IC50 in data set [1] turned out to be 17 nM.
Consider `COc1ccc(CN2C3CC2CN(c2ccc(-c4cc(OCC(C)(C)O)cn5ncc(C#N)c45)cn2)C3)cn1` [SELPERCATINIB], for which the IC50 in data set [1] is above 500 nM; in data set [19], 0.8 nM.
Turning to `CNC(=O)c1cc(Oc2ccc(NC(=O)Nc3ccc(Cl)c(C(F)(F)F)c3)cc2)ccn1` [SORAFENIB], the IC50 came out at 38 nM in data set [20] and 7.9 nM in data set [22]. The compound also yielded a GI50 in [21] of 47 nM.
